The values that follow come from patent US20100113465A1, “7-AZASPIRO[3.5]NONANE-7-CARBOXAMIDE COMPOUNDS” (Pfizer Inc., priority 2008, published 2010).

In experiment [1] the target is T1, human FAAH (Homo sapiens, UniProt O00519).
T1 construct: made in house; host or cells: E. coli
T1 sequence (O00519 1-579): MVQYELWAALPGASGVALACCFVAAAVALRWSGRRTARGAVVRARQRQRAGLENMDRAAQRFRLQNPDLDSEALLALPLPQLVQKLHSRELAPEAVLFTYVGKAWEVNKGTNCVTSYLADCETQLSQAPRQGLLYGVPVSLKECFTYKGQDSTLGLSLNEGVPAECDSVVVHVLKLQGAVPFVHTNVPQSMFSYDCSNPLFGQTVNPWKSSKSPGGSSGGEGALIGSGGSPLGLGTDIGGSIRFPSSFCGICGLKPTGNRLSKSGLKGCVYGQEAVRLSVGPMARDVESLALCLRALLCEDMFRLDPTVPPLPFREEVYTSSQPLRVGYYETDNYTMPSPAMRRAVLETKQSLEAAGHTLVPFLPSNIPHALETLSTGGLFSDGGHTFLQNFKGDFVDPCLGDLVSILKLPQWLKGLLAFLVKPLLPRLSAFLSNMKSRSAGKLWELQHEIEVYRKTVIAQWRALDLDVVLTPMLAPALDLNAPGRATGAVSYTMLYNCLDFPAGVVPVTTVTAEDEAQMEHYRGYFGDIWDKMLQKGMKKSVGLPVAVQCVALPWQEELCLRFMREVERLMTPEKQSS
Briefly: FAAH assay, human FAAH enzyme inhibition (kinact/Ki). The class given is biochemical. As to conditions: oleamide substrate 50 μM, 30° C., read-out: hFAAH kinact/Ki. As to the method:
(§1) The FAAH assay was carried out in 384-well clear polystyrene plates (Evergreen Scientific) in a total volume of 50 μl per well in a manner similar to that described by Mileni et al., Proc. Nat. Acad. Sci. 2008, 105, 12820-12824. All percents are by volume. Serial dilutions of compound were initially prepared in 100% DMSO, and then diluted two-fold into HPLC-grade H2O to give 50% DMSO. To each well, was placed the reaction mixture (40 μl) containing 1-4 nM FAAH, 50 mM NaPi, pH 7.4, 3 mM α-ketoglutarate, 0.15 mM NADH, 7.5 U/ml glutamate dehydrogenase, 2 mM ADP, 1 mM EDTA, and 0.1% Triton X-100 (The concentration shown for each component is the final concentration in the assay). To this mixture, was added 5 μl of a compound of Examples 1 to 56 at various concentrations in 50% DMSO (or 5 μl 50% DMSO for controls). This was immediately followed by the addition of 5 μl oleamide (500 μM) dissolved in 75% EtOH/25% DMSO and the reaction mixture was mixed for 1.5 min. The final concentrations of DMSO and EtOH in the assay were each 7.5%. The reactions were incubated at 30° C. and the absorbance at 340 nm was collected over a period of 90 min with readings taken in 30-second intervals using SpectraMax Plus^384 Microplate Spectrophotometer (Molecular Devices, Sunnyvale, Calif.). The human FAAH and rat FAAH used in the assay was prepared as described in the patent application WO 2006/067613 using wild-type E. coli cells transformed in St. Louis, Mo., U.S.A. The purity of the enzyme was greater than 98% based on an analysis by SDS-polyacrylamide gel electrophoresis followed by Coomassie Blue staining.
(§2) Reaction progress curves were corrected for the non-enzymatic oxidation of NADH by subtraction of absorbancies at each time point obtained from control reactions containing no FAAH enzyme. The loss of enzyme activity as a function of time is well-described by the following mathematical equation (1) for a mono-exponential decay: […]
(§3) where At represents the absorbance at time t, A0 represents the absorbance at time zero, and C represents a constant. Observed rates of enzyme inactivation (kobs) were determined from the non-linear reaction progress curves by fitting the corrected absorbancies to an equation for a mono-exponential decay using the third-party Microsoft Excel plug-in, XLfit (IDBS Limited). Secondary plots of kobs vs. inhibitor concentration were prepared from kobs values obtained from progress curves. Second-order rates for enzyme inactivation, expressed as kinact/Ki (M^−1s^−1), were calculated from the slopes from linear regression analysis of the secondary plot of kobs vs. inhibitor concentration as defined in following equation (2), where [I]<<Ki:
(§4) The concentration of substrate in the assay was equal to the Km for oleamide of 50 μM. Therefore, reported kinact/Ki values are obtained by multiplying resulting slopes by a factor of two (i.e. slope=kinact/(Ki*2)).

In experiment [2] the target is T2, rat FAAH (Rattus norvegicus, UniProt P97612).
T2 construct: made in house; host or cells: E. coli
T2 sequence (P97612 1-579): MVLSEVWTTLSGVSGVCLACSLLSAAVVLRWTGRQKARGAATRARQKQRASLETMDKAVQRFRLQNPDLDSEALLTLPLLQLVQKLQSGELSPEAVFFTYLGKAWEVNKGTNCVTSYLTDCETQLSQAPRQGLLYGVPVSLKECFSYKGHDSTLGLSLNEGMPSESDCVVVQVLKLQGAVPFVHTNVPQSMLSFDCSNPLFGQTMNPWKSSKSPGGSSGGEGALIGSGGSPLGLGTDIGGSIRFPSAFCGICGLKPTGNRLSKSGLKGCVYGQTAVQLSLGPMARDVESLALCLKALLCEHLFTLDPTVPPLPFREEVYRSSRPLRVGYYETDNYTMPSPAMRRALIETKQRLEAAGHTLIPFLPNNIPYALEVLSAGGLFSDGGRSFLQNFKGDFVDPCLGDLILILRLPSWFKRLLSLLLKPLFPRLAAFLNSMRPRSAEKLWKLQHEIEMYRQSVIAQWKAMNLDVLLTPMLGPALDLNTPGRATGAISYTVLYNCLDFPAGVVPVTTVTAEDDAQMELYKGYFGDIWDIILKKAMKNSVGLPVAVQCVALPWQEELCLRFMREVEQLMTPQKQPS
Briefly: FAAH assay, rat FAAH enzyme inhibition (kinact/Ki). The class given is biochemical. As to conditions: oleamide substrate 50 μM, 30° C., read-out: rFAAH kinact/Ki. As to the method: as §1, §2, §3, §4

The test system of experiment [3] is Male Sprague-Dawley Rats. Briefly: In vivo Complete Freund's Adjuvant (CFA) efficacy assay. Details: species or system rat; key: (+) indicates the test compound was determined to be efficacious at 3 mpk, oral dosing; (−) indicates the test compound was determined to not be efficacious at 3 mpk, oral dosing. As to conditions: 3 mpk, oral dosing; inhibition of allodynia (PWT) four hours postdose vs vehicle, p<0.05. As to the method:
For additional information on the CFA efficacy assay, see Jayamanne et al., Brit. J. Pharmacol. 2006, 147, 281-288. Experiments were performed on adult Male Sprague-Dawley Rats (200 g-250 g). Inflammation was induced in the left hindpaw of the rat by an intra-plantar injection of 150 uL Complete Freund's Adjuvant (CFA) (SIGMA F5881). The CFA injection immediately induces local inflammation, paw swelling, and pain that persists for at least two weeks post-injection. Baseline paw withdrawal threshold (PWT) was measured to determine the percent inhibition of allodynia using a set of Von Frey Hairs on day 4 post injection as illustrated by the Dixon Up and Down Method (W. J. Dixon, Ann. Rev. Pharmacol. Toxicol. 1980, 20:441-462). […] Test compound was administered at a concentration of 3 mg/kg (mpk) orally with the dosing vehicle 5% N,N′-Dimethylacetamide (SIGMA D137510) and 95% (40% 2-hydroxypropyl-beta-cyclodextrin in water) (SIGMA H107). Following Dose administration PWT threshold was evaluated again at four hours postdose. The Sprague-Dawley rats used in this assay were purchased from Harlan, 8520 Allison Pointe Blvd., Indianapolis, Ind., 46250, U.S.A. Sprague-Dawley rats are an outbred breed of albino rats first produced by the Sprague Dawley farms in Madison, Wis., U.S.A.
Percent Inhibition of Allodynia was determined by the formula: […]
ΔPWT measurements were averaged for each treatment group and statistical comparisons between groups were made using ANOVA and Dunnett's two-tailed test. […]

For `Cn1nnnc1NC(=O)N1CCC2(CC1)CC(c1cccc(C(F)(F)F)c1)C2` [Example 24, N-(1-methyl-1H-tetrazol-5-yl)-2-[3-(trifluoromethyl)phenyl]-7-azaspiro[3.5]nonane-7-carboxamide], the figures for the kinact/KI in experiment [1] and in experiment [2] were 12400 M⁻¹ s⁻¹ and 5750 M⁻¹ s⁻¹, respectively. The “CFA Efficacy” value in experiment [3] is “(+)”.
On to `Cc1noc(NC(=O)N2CCC3(CC2)CC(c2cccc(OCCOc4ccc(Cl)cc4)c2)C3)c1C` [Example 25, 2-{3-[2-(4-chlorophenoxy)ethoxy]phenyl}-N-(3,4-dimethylisoxazol-5-yl)-7-azaspiro[3.5]nonane-7-carboxamide], for which the kinact/KI came to 2860 M⁻¹ s⁻¹ in experiment [1] and 2340 M⁻¹ s⁻¹ in experiment [2]. In experiment [3], the “CFA Efficacy” value was “(+)”.
The matching figures for `Cc1noc(NC(=O)N2CCC3(CC2)CC(c2cccc(OCCOc4ccccc4)c2)C3)c1C` [Example 26, N-(3,4-dimethylisoxazol-5-yl)-2-[3-(2-phenoxyethoxy)phenyl]-7-azaspiro[3.5]nonane-7-carboxamide]: 4480 M⁻¹ s⁻¹, 1700 M⁻¹ s⁻¹ and “(+)”.
The matching figures for `Cc1noc(NC(=O)N2CCC3(CC2)CC(c2cccc(OCCOc4ccccc4Cl)c2)C3)c1C` [Example 27, 2-{3-[2-(2-chlorophenoxy)ethoxy]phenyl}-N-(3,4-dimethylisoxazol-5-yl)-7-azaspiro[3.5]nonane-7-carboxamide]: 2940 M⁻¹ s⁻¹, 1810 M⁻¹ s⁻¹ and “(+)”.
Turning to `Cc1noc(NC(=O)N2CCC3(CC2)CC(c2cccc4c2OC(F)(F)O4)C3)c1C` [Example 28, 2-(2,2-difluoro-1,3-benzodioxol-4-yl)-N-(3,4-dimethylisoxazol-5-yl)-7-azaspiro[3.5]nonane-7-carboxamide], the kinact/KI in experiment [1] amounted to 2220 M⁻¹ s⁻¹; in experiment [2], 1060 M⁻¹ s⁻¹. Moreover, the “CFA Efficacy” value in experiment [3] was “(+)”.
Take `Cc1noc(NC(=O)N2CCC3(CC2)CC(c2cccc(Cl)c2F)C3)c1C` [Example 29, 2-(3-chloro-2-fluorophenyl)-N-(3,4-dimethylisoxazol-5-yl)-7-azaspiro[3.5]nonane-7-carboxamide]: the kinact/KI in experiment [1] turned out to be 3840 M⁻¹ s⁻¹; in experiment [2] it was 2470 M⁻¹ s⁻¹. Also, the “CFA Efficacy” value in experiment [3] was “(+)”.
In the case of `Cc1noc(NC(=O)N2CCC3(CC2)CC(c2cccc(C(F)(F)F)c2F)C3)c1C` [Example 30, N-(3,4-dimethylisoxazol-5-yl)-2-[2-fluoro-3-(trifluoromethyl)phenyl]-7-azaspiro[3.5]nonane-7-carboxamide], the kinact/KI in experiment [1] turned out to be 3240 M⁻¹ s⁻¹; in experiment [2], 2340 M⁻¹ s⁻¹. In addition, the “CFA Efficacy” value in experiment [3] was “(+)”.
As to `Cc1noc(NC(=O)N2CCC3(CC2)CC(F)(c2cccc(Cl)c2)C3)c1C` [Example 32, 2-(3-chlorophenyl)-N-(3,4-dimethylisoxazol-5-yl)-2-fluoro-7-azaspiro[3.5]nonane-7-carboxamide], the kinact/KI in experiment [1] was 2830 M⁻¹ s⁻¹; in experiment [2], 1320 M⁻¹ s⁻¹. Moreover, the “CFA Efficacy” value in experiment [3] was “(+)”.
For `Cc1noc(NC(=O)N2CCC3(CC2)CC(c2noc(-c4ccc(C(F)(F)F)cc4)n2)C3)c1C` [Example 33, N-(3,4-dimethylisoxazol-5-yl)-2-{5-[4-(trifluoromethyl)phenyl]-1,2,4-oxadiazol-3-yl}-7-azaspiro[3.5]nonane-7-carboxamide], the kinact/KI in experiment [1] stood at 1600 M⁻¹ s⁻¹; in experiment [2], 636 M⁻¹ s⁻¹. Besides, in experiment [3], the “CFA Efficacy” value is given as “(+)”.
With `CCc1noc(NC(=O)N2CCC3(CC2)CC(c2cccc(OC(F)(F)F)c2)C3)c1C` [Example 34, N-(3-ethyl-4-methylisoxazol-5-yl)-2-[3-(trifluoromethoxy)phenyl]-7-azaspiro[3.5]nonane-7-carboxamide], the kinact/KI in experiment [1] was found to be 1650 M⁻¹ s⁻¹; in experiment [2], 1660 M⁻¹ s⁻¹. Further, the “CFA Efficacy” value in experiment [3] is recorded as “(+)”.
Regarding `Cc1noc(NC(=O)N2CCC3(CC2)CC(c2csc(-c4cccc(C(F)(F)F)c4)n2)C3)c1C` [Example 36, N-(3,4-dimethylisoxazol-5-yl)-2-{2-[3-(trifluoromethyl)phenyl]-1,3-thiazol-4-yl}-7-azaspiro[3.5]nonane-7-carboxamide], the figures for the kinact/KI in experiment [1] and in experiment [2] were 2030 M⁻¹ s⁻¹ and 1160 M⁻¹ s⁻¹, respectively. Further, the “CFA Efficacy” value in experiment [3] is on record as “(+)”.
`Cn1nnnc1NC(=O)N1CCC2(CC1)CC(c1cccc(OC(F)(F)F)c1)C2` [Example 45, N-(1-methyl-1H-tetrazol-5-yl)-2-[3-(trifluoromethoxy)phenyl]-7-azaspiro[3.5]nonane-7-carboxamide]: the results for the kinact/KI in experiment [1] and in experiment [2] were 13200 M⁻¹ s⁻¹ and 4570 M⁻¹ s⁻¹, respectively. In addition, the “CFA Efficacy” value in experiment [3] was “(+)”.
`Cn1nnnc1NC(=O)N1CCC2(CC1)CC(c1cccc(Cl)c1F)C2` [Example 46, 2-(3-chloro-2-fluorophenyl)-N-(1-methyl-1H-tetrazol-5-yl)-7-azaspiro[3.5]nonane-7-carboxamide]: the values for the kinact/KI in experiment [1] and in experiment [2] were 14100 M⁻¹ s⁻¹ and 3410 M⁻¹ s⁻¹, respectively. Moreover, the “CFA Efficacy” value in experiment [3] was “(+)”.
